Columns and labels:
[1] = system: herpes simplex virus type 2 (HSV-2), strain E194; experiment: HSV-2 vaginitis in mice; format: in vivo, Swiss Webster female mice
in vivo = format: in vivo
[2] = system: Parainfluenza Type 3 (PIV-3), strain C243; experiment: CPE-reduction assay, parainfluenza type 3 in HEp-2 cells; format: cell-based; settings: 5 mg/ml

NC1=NCCN1CC(=O)O [cyclocreatine, 1-carboxymethyl-2-iminoimidazolidine]
antiviral effect in vaginitis model ([1]; 1% dietary): comparable to that achieved by acyclovir at 200 mg/kg, 100 mg/kg or 50 mg/kg
average lesion score ([1]; 1% in chow, Grand Ave. (Days 3-14)): 0.8 ± 0.2
average lesion score ([1]; 1% in chow, day 3): 0.2 ± 0.2
average lesion score ([1]; 1% in chow, day 4): 0.5 ± 0.7
average lesion score ([1]; 1% in chow, day 5): 0.9 ± 1.3
average lesion score ([1]; 1% in chow, day 6): 0.9 ± 1.3
average lesion score ([1]; 1% in chow, day 7): 0.8 ± 1.4
average lesion score ([1]; 1% in chow, day 8): 0.8 ± 1.4
average lesion score ([1]; 1% in chow, day 9): 1.0 ± 1.3
average lesion score ([1]; 1% in chow, day 10): 1.1 ± 1.3
average lesion score ([1]; 1% in chow, day 11): 1.0 ± 1.3
average lesion score ([1]; 1% in chow, day 12): 0.9 ± 1.3
average lesion score ([1]; 1% in chow, day 13): 0.9 ± 1.4
average lesion score ([1]; 1% in chow, day 14): 0.7 ± 1.4
activity in vaginitis model ([1]; 5% and […] cream topical): inactive
average lesion score ([1]; 5% cream topical, Grand Ave. (Days 3-14)): 2.3 ± 1.1
average lesion score ([1]; 5% cream topical, day 3): 0.3 ± 0.3
average lesion score ([1]; 5% cream topical, day 4): 0.4 ± 0.4
average lesion score ([1]; 5% cream topical, day 5): 1.5 ± 1.1
average lesion score ([1]; 5% cream topical, day 6): 2.1 ± 1.6
average lesion score ([1]; 5% cream topical, day 7): 2.0 ± 1.3
average lesion score ([1]; 5% cream topical, day 8): 2.8 ± 1.8
average lesion score ([1]; 5% cream topical, day 9): 3.2 ± 1.6
average lesion score ([1]; 5% cream topical, day 10): 3.2 ± 1.5
average lesion score ([1]; 5% cream topical, day 11): 3.1 ± 1.5
average lesion score ([1]; 5% cream topical, day 12): 3.0 ± 1.5
average lesion score ([1]; 5% cream topical, day 13): 3.0 ± 1.5
average lesion score ([1]; 5% cream topical, day 14): 3.0 ± 1.5
survival ([1]; 10% cream topical (16% in the placebo group)): 40%
effect on average lesion score ([1]; 10% cream topical, FIG. 10): slightly reduces the average lesion score
average lesion score ([1]; 10% cream topical, Grand Ave. (Days 3-14)): 1.6 ± 0.8
average lesion score ([1]; 10% cream topical, day 3): 0.2 ± 0.2
average lesion score ([1]; 10% cream topical, day 4): 0.1 ± 0.2
average lesion score ([1]; 10% cream topical, day 5): 0.9 ± 1.2
average lesion score ([1]; 10% cream topical, day 6): 1.4 ± 1.9
average lesion score ([1]; 10% cream topical, day 7): 1.6 ± 1.9
average lesion score ([1]; 10% cream topical, day 8): 2.0 ± 2.0
average lesion score ([1]; 10% cream topical, day 9): 2.2 ± 1.9
average lesion score ([1]; 10% cream topical, day 10): 2.2 ± 1.9
average lesion score ([1]; 10% cream topical, day 11): 2.1 ± 1.9
average lesion score ([1]; 10% cream topical, day 12): 2.0 ± 1.9
average lesion score ([1]; 10% cream topical, day 13): 2.0 ± 1.9
average lesion score ([1]; 10% cream topical, day 14): 2.0 ± 1.9
average lesion score ([1]; […] cream topical, Grand Ave. (Days 3-14)): 2.0 ± 0.9
average lesion score ([1]; […] cream topical, day 3): 0.2 ± 0.2
average lesion score ([1]; […] cream topical, day 4): 0.4 ± 0.6
average lesion score ([1]; […] cream topical, day 5): 1.2 ± 1.3
average lesion score ([1]; […] cream topical, day 6): 1.8 ± 1.8
average lesion score ([1]; […] cream topical, day 7): 2.2 ± 1.8
average lesion score ([1]; […] cream topical, day 8): 2.7 ± 1.7
average lesion score ([1]; […] cream topical, day 9): 2.4 ± 1.9
average lesion score ([1]; […] cream topical, day 10): 2.6 ± 1.7
average lesion score ([1]; […] cream topical, day 11): 2.6 ± 1.7
average lesion score ([1]; […] cream topical, day 12): 2.6 ± 1.7
average lesion score ([1]; […] cream topical, day 13): 2.6 ± 1.7
average lesion score ([1]; […] cream topical, day 14): 2.6 ± 1.7
activity in vaginitis model, second experiment ([1]; cream topical): weak, but not statistically significant, activity
Mean Day to Death ([1]; virus infected, AM-285 1% dietary): 6.0 ± 0.0
tolerance in the diet (in vivo; 1% in mouse chow): well-tolerated
tolerance in toxicity control (in vivo; cream topical, sham-infected mice): well-tolerated and caused no adverse effects to the vaginal area
survival (in vivo; mouse, in vivo, 1 %, read-out: Survivors/Total (%)): 100%
Weight Change (in vivo; uninfected, AM-285 1% dietary, combined animal weights day 0 to day 15): 7.8 g
Average CPE [2]: 2.8

From patent publication US5321030A, “Creatine analogs having antiviral activity” (priority 1991, dated 1994)
